From patent publication EP4111863A1, “PHOSPHORUS USE EFFICIENCY ENHANCERS AS PLANT GROWTH PROMOTORS” (EuroChem Antwerpen, priority 2021, dated 2023) come the findings set out here.

Molecules are shown by their SMILES.

This test has as its system SPX1. Nature of the test: Chemical activity assessment: SPX1 phosphate starvation biomarker, pSPX1::GUS reporter line, GUS stained area. The class given is in vivo, Arabidopsis thaliana. The settings on record: Table 3; 50 µM compound, low phosphate modMS liquid medium, 7 days after germination; low phosphate control average of the same plate. The method, then: All Arabidopsis plant experiments were performed using the Arabidopsis thaliana Columbia-0 background. The Arabidopsis pSPX1::GUS line is described in the […] 2008, 54: 965-975. For rice, the cultivar Nipponbare was used. For maize, the cultivars DKC 2931 and B104 were used for regular pot experiments and sand-based pot experiments, respectively. For soybean, the cultivar Primus was used. […] The medium was solidified due to the addition of 0,6% Gelrite, unless stated otherwise. In case of vertical plates (root length and root hair measurements), the medium was supplied with 0.5% of sucrose and 1 µM (low phosphate, 1 µM KH2PO4, 9.9 mM KCI), 10 µM (low phosphate 10 µM KH2PO4, 9.9 mM KCI) or 1.25 mM KH2PO4 (high phosphate). Arabidopsis seeds were stratified for 2 days at 4 °C before germination. Seedlings were germinated in climate-controlled growth chambers at 22 °C under continuous light (100 µmol m^-2 s^-1). Husked rice seeds were germinated on wetted Whatman paper for 2 days at 37 °C and then transferred to Sterivent boxes or square Petri dishes with solid medium. Maize and soybean seeds were wetted 24 hours at room temperature prior to sowing in pots.
For the chemical activity assessment 3 to 8 seeds per well of Arabidopsis pSPX1::GUS line were sown in 96-well plates containing 150 µl of low phosphate modMS liquid medium containing 1% of sucrose. Compounds were added in 50 µM concentration, starting from a 5 mM stock of compounds solved in DMSO. Different chemical substances were separately added to different wells. Per plate, 16 control wells were used, 8 containing only the low phosphate medium and 1% DMSO, and 8 containing high phosphate medium and 1% DMSO. 7 days after germination, plates were scanned using a flatbed scanner (EPSON Expression 11000XL) and analyzed for leaf size. After scanning, the growth medium was replaced by GUS staining solution (see Plant Mol. Biol. Rep. 1994, 12: 37-42 for details) and incubated for 1.5 hours at 37 °C. The plates were scanned a second time and analyzed for GUS signal area. Measurements of both leaf area and GUS signal area were conducted by filtering out and measure the green and blue signal, respectively using ImageJ software. If the green leaf area was 50% or less than the control, samples were omitted. Additionally, all results were visually screened for leaf size and GUS signal.
`CCC1CN(C(=O)c2[nH]nc(C)c2Br)CCO1` (centres unmarked): the “GUS (SPX1) stained area normalized to the number of seeds (pixels)” value (“GUS (SPX1) stained area normalized” below) amounted to 0 pixels. As to `CC1(C)CN(c2snc(Cl)c2C#N)CCO1`, the “GUS (SPX1) stained area normalized” value is on record as 0 pixels.

For `FC(F)(F)c1ccnc(N2CCOC(c3nccs3)C2)n1` (centres unmarked), the “GUS (SPX1) stained area normalized” value came out at 0 pixels.

As for `C(=C\c1cc2ccccc2nc1N1CCOCC1)/c1nc2ccccc2s1`, the “GUS (SPX1) stained area normalized” value is listed as 0 pixels. As for `CN(CC1COc2ccccc2O1)c1ccc(S(=O)(=O)N2CCOCC2)cn1` (centres unmarked), the “GUS (SPX1) stained area normalized” value turned out to be 0 pixels.

In the case of `O=C(c1cccs1)C(C(c1ccc(Cl)cc1)N1CCOCC1)N1CCOCC1` (centres unmarked), the “GUS (SPX1) stained area normalized” value is reported as 3 pixels. The same measure for `CN(Cc1ccccc1N1CCOCC1)C(=O)C12CC3CC(CC(C3)C1)C2`: 3 pixels; for `O=S(=O)(c1ccc(OCCN(C2CC2)C2CCCc3ccccc32)cc1)N1CCOCC1` (centres unmarked): 3 pixels; for `COc1ccc(-c2[nH]c3ccccc3c2CCC(=O)N2CCOCC2)cc1`: 3 pixels.

In the case of `O=C(COc1cc(Cl)ccc1Cl)NCc1ccc(N2CCOCC2)nc1`, the “GUS (SPX1) stained area normalized” value is given as 3 pixels. Turning to `Fc1ccc(C2CN(Cc3nnsc3Cl)CCO2)cc1` (centres unmarked), the “GUS (SPX1) stained area normalized” value was 3 pixels. On to `CCC1CN(Cn2nc3ccccn3c2=S)CCO1` (centres unmarked), for which the “GUS (SPX1) stained area normalized” value turned out to be 3 pixels. As for `Cc1ccc(CS(=O)(=O)c2nnc(N3CCOCC3)n2C)cc1`, the figure is 4 pixels; as for `CC1CN(C(=O)c2c(Cl)nc3ccccn23)C(C)CO1` (centres unmarked), 4 pixels; as for `C=CCCN1CC(C(=O)OC)O[C@H](C)C1` (some centres unmarked), 5 pixels. In the case of `O=C(CSc1ccc(F)cc1)Nc1ccc(Cl)c(S(=O)(=O)N2CCOCC2)c1`, the “GUS (SPX1) stained area normalized” value is 5 pixels.

With `CC(C)(C)c1n[nH]c(C2CN(C(=O)c3ccc[nH]3)CCO2)n1` (centres unmarked), the “GUS (SPX1) stained area normalized” value is 5 pixels.

As to `O=C(C1=C(O)C(=O)N(CCN2CCOCC2)C1c1ccccc1)c1cccs1` (centres unmarked), the “GUS (SPX1) stained area normalized” value was determined as 5 pixels. For `CCc1cc(N2CC(C)OCC2c2ccccc2)nc(-c2ccccn2)n1` (centres unmarked), the “GUS (SPX1) stained area normalized” value was found to be 5 pixels. Take `Cc1csc(C2CN(Cc3ncc(C(C)(C)C)o3)CCO2)n1` (centres unmarked): the “GUS (SPX1) stained area normalized” value amounted to 5 pixels. For `CC(C)(C)CC(C)(C)NCc1cnc(N2CCOCC2)nc1`, the “GUS (SPX1) stained area normalized” value was determined as 5 pixels. As for `CN1CCOC(C(=O)NC(c2c(F)cccc2F)C(F)(F)F)C1` (centres unmarked), the “GUS (SPX1) stained area normalized” value is 5 pixels. Regarding `CC1(C)CN(C(=O)c2csc(-c3cccs3)n2)CCO1`, the “GUS (SPX1) stained area normalized” value is 6 pixels. `c1cc2c(cc1Sc1nc(CN3CCOCC3)nc3sc4c(c13)CCC4)OCCO2`: the “GUS (SPX1) stained area normalized” value is on record as 6 pixels. The same measure for `O=S(=O)(c1ccc(Sc2nnc(-c3ccncc3)[nH]2)nc1)N1CCOCC1`: 6 pixels; for `Cn1cccc1C1COCCN1CCOCC1CC1` (centres unmarked): 6 pixels. As for `Cc1cnn(CC2CN(C(C)C(=O)Nc3cc(C)no3)CCO2)c1` (centres unmarked), the “GUS (SPX1) stained area normalized” value is listed as 7 pixels. Consider `CCC(CC)C(CNC(=O)c1cc(C)nc2onc(C)c12)N1CCOCC1` (centres unmarked), for which the “GUS (SPX1) stained area normalized” value was 7 pixels. As for `Cc1cnc(CN2CCOC(c3nc(C(C)C)n[nH]3)C2)o1` (centres unmarked), the “GUS (SPX1) stained area normalized” value was 7 pixels. `O=C(COn1nnc2ccc(Cl)cc21)Nc1cc(S(=O)(=O)N2CCOCC2)ccc1Cl`: the “GUS (SPX1) stained area normalized” value is reported as 7 pixels. With `CCN(CC)S(=O)(=O)c1ccc(N2CCOCC2)c(NC(=O)c2ccccc2OC)c1`, the “GUS (SPX1) stained area normalized” value was 7 pixels. Regarding `CC(C)(C)Nc1nn(CN2CCOCC2)c(=S)s1`, the “GUS (SPX1) stained area normalized” value was 7 pixels. `CC(C)CC1COCCN1C(=O)Nc1nnc(C(F)(F)F)s1` (centres unmarked): the “GUS (SPX1) stained area normalized” value is reported as 7 pixels.

Regarding `CC1CN(C(C)(C)CNC(=O)C2CCCN2C2CCN(CC(F)(F)F)CC2)CC(C)O1` (centres unmarked), the “GUS (SPX1) stained area normalized” value is 7 pixels. As to `O=C(NCc1ccccc1CS(=O)(=O)N1CCOCC1)c1ccc([N+](=O)[O-])cc1`, the “GUS (SPX1) stained area normalized” value was found to be 7 pixels.

As for `COCC(C)Nc1ccc(N2CCOC(C)(C)C2)cc1OC` (centres unmarked), the “GUS (SPX1) stained area normalized” value worked out at 7 pixels. The same measure for `O=C(Nc1sc2c(c1C(=O)N1CCOCC1)CCCC2)C1CCCc2ccccc21` (centres unmarked): 8 pixels; for `O=C(Nc1ccc(F)c(C(F)(F)F)c1)N1CCOCC1`: 8 pixels. As for `O=C(NC1COc2ccccc21)N1CCOC(c2ccc(Cl)cc2)C1` (centres unmarked), the “GUS (SPX1) stained area normalized” value stood at 8 pixels.

With `COc1cc(C(C)=O)ccc1OC(=O)N1CCOCC1`, the “GUS (SPX1) stained area normalized” value was found to be 8 pixels.

As to `CC1CN(Cn2nc(-c3cccs3)nc2S)C(C)CO1` (centres unmarked), the “GUS (SPX1) stained area normalized” value amounted to 9 pixels. With `CC(c1nc(C(C)(C)C)no1)N1CCOC(c2ccccc2)C1` (centres unmarked), the “GUS (SPX1) stained area normalized” value stood at 9 pixels. As for `CC(C)Cn1c(SCC(=O)c2ccc(Br)s2)nnc1N1CCOCC1`, the figure is 9 pixels; as for `O=S(=O)(CCN1CCOC2CCCCC21)c1cc(Cl)ccc1Cl` (centres unmarked), 9 pixels. As to `COCCn1c(SCC(=O)N2CCOCC2)nnc1-c1ccncc1`, the “GUS (SPX1) stained area normalized” value turned out to be 9 pixels. Turning to `O=C1C(=O)N(C2CCCC2)C(=O)N1Cc1cccc(S(=O)(=O)N2CCOCC2)c1`, the “GUS (SPX1) stained area normalized” value came to 9 pixels. For `Cc1c(C(=O)NCC2CN(CC(C)C)CCO2)cnn1C` (centres unmarked), the “GUS (SPX1) stained area normalized” value stood at 9 pixels.

As to `Brc1ccc(CN2CCOC(Cn3cccn3)C2)s1` (centres unmarked), the “GUS (SPX1) stained area normalized” value is 10 pixels. Take `O=C(COc1cccc(F)c1)Nc1sc2c(c1C(=O)N1CCOCC1)CCCC2`: the “GUS (SPX1) stained area normalized” value is listed as 10 pixels. On to `Cc1ccc(S(=O)(=O)N2CCN(S(=O)(=O)N3CCOCC3)CC2)cc1`, for which the “GUS (SPX1) stained area normalized” value worked out at 10 pixels. As for `CC1CN(C(=O)c2nn(-c3ccccc3)c(=O)c3ccccc23)CC(C)O1` (centres unmarked), the figure is 10 pixels; as for `O=C(Nc1cccc(NC(=O)N2CCOC3(CCC3)C2)c1)C1CC1`, 11 pixels. In the case of `CCC(CC)C(C(=O)NCc1cccc(C)c1)N1CCOCC1` (centres unmarked), the “GUS (SPX1) stained area normalized” value stood at 11 pixels.

`CN1CCOC2CN(Cc3cc(O)ccc3Br)CC21` (centres unmarked): the “GUS (SPX1) stained area normalized” value came out at 12 pixels. As for `Cc1csc(C2COCCN2C(=O)NC2CCc3ccccc32)n1` (centres unmarked), the “GUS (SPX1) stained area normalized” value came out at 12 pixels. Turning to `COCC1CN(C(=O)NCCc2c[nH]c3ccc(F)cc23)CCO1` (centres unmarked), the “GUS (SPX1) stained area normalized” value is recorded as 13 pixels.
